Holding throughout (format): cell-based, Human
The test system of experiment [1] is Jurkat cells. As to the kind of experiment: Extracellular ROS level of drug-treated Jurkat cells measured with the nanowire biosensor. To be noted: t=6 hours, normalized by the number of live cells. As to the method:
For measurements of cellular metabolites/activity, cells were cultured in the chip, namely, in the culture compartment thereof (see, for example, FIG. 1A), while placing the chip in an incubator during measurements. A sample was introduced to the sensing compartment at 20 μl min^-1 by using a syringe pump. Human T lymphocytes, Jurkat (TIB-152, ATCC), were cultured and incubated at 37° C. under a humidified 5% CO2 atmosphere. The culture medium used was RPMI 1640 medium (52400, GIBCO) with 10% fetal bovine serum (FBS; 04-001-1A, Biological Industry) and 1% penicillin/streptomycin (15140, GIBCO). During experiments, cells were re-suspended in phenol red-free medium (11835-063, GIBCO) in the presence or absence of a drug, either methotrexate hydrate (MTX; […], SIGMA) or 2-deoxy-D-glucose (2DG; […], SIGMA), at a density of 1×10^6 cells/ml. Cellular samples were dispensed into the wells of the sensing chip (see FIGS. 1A and 1B) in an incubator. 24-hour monitoring of metabolic activity of drug-treated Jurkat cells by measuring extracellular ROS levels using the nanowire biosensor, was performed and the obtained data is presented in FIGS. 6A-G. Measured ROS levels were normalized by the number of live cells.

For experiment [2], the system named is Jurkat cells. Briefly: Cell proliferation rate / viability of drug-treated Jurkat cells (trypan blue count). To be noted: for cell viability: 24-hour viability observation. How it is done:
During experiments, cells were re-suspended in phenol red-free medium (11835-063, GIBCO) in the presence or absence of a drug, either methotrexate hydrate (MTX; […], SIGMA) or 2-deoxy-D-glucose (2DG; […], SIGMA), at a density of 1×10^6 cells/ml. Cell viability was estimated by using a hemocytometer to count trypan blue-stained cells. Relative cell count, presented in FIGS. 6B and 6E-6F, is a ratio of the cell count at t=24 hours to the initial cell count.

Experiment [3] has as its system Jurkat cells. As to the kind of experiment: Extracellular lactate level of drug-treated Jurkat cells (lactate oxidase, nanowire biosensor). The following applies: after 24 hours. As to the method:
For lactate sensing, 0.1 unit/ml of lactate oxidase (LOX; L0638, SIGMA) was added in phenol red-free medium to convert lactate to pyruvate and H2O2 before lactate reaches the FET array (as depicted in FIG. 1D).
During experiments, cells were re-suspended in phenol red-free medium (11835-063, GIBCO) in the presence or absence of a drug, either methotrexate hydrate (MTX; M8407, SIGMA) or 2-deoxy-D-glucose (2DG; D6134, SIGMA), at a density of 1×10^6 cells/ml.
The correlation between extracellular lactate level of 2DG-treated Jurkat cells and a resultant cell proliferation rate after 24 hours was investigated.

The subject of experiment [4] is Jurkat cells. Briefly: pH sensing of drug-treated Jurkat cells (reductant-added medium). The following applies: compared with the control. The source says: A conversion of the modified FET into a pH sensor was achieved by using a reductant-added solution. After supplementing a culture medium with 0.1% v/v DEHA to reduce the modified FET surface, surface proton density varied by protonation or by deprotonation dominantly changes the measured current.
For pH sensing, 0.1% v/v DEHA was supplemented in the sensing medium to reduce the 9,10-anthraquinone monolayer on the FET surface to obtain 9,10-dihydroxyanthracene (see also FIG. 1d) and H2O2 simultaneously. Therefore, no significant amount of H2O2 in a DEHA-supplemented medium altered a measured signal. As a result, surface proton density, varied by protonation or by deprotonation, dominantly changes an acquired signal.

SMILES strings stand for the structures.

Take `O=CC[C@@H](O)[C@H](O)[C@H](O)CO` [2DG, 2-deoxy-D-glucose]: the ROS level entry in the experiment on Jurkat cells [1] is recorded as “noticeable decrease”. Also, the cell viability entry in the experiment on Jurkat cells [2] is listed as “anti-proliferative activity”. Besides, the cell proliferation rate result with Jurkat cells [2] (after 24 hours, relative cell count) is recorded as “reduced proliferation rate”. For the same compound, the cellular lactate secretion entry in the experiment on Jurkat cells [3] is listed as “decreased”. Further, in the experiment with Jurkat cells [4], the “pH of cultured cells” value is reported as “more basic than the control”.

`CN(Cc1cnc2nc(N)nc(N)c2n1)c1ccc(C(=O)N[C@@H](CCC(=O)O)C(=O)O)cc1` [MTX, methotrexate hydrate]: the ROS level result with Jurkat cells [1] is listed as “noticeable decrease”. Besides, the cell viability entry in the experiment on Jurkat cells [2] is on record as “anti-proliferative activity”.

Source of the values: patent US10274456B2, “Method and system for sensing” (Ramot at Tel-Aviv University Ltd., priority 2013, dated 2019).
